From a melting point compilation (Tetko et al.; mined from patent text by program, amines drawn as free bases though some values may be those of a salt) come the findings set out here.

Structures are written as SMILES.

In turn, `CCOC(=O)c1cccc(-c2ccc3ccccc3c2)c1` yielded a melting point of 101 to 103 °C.

The compound `CNC(=S)C(OC)c1ccccn1` (centres undefined) returned a melting point of 104 to 105 °C.

For the compound `CC(C)=CCOc1ccc2cc(C(C)C(=O)O)ccc2c1` (centres undefined), the melting point lay in the range of 97 to 100 °C.

Turning to `COCCOc1cc2nccc(Oc3cccc(O)c3)c2cc1C#N`, the melting point was in the range of 159 to 163 °C.

Compound `CC(C)(C)c1cc(OCc2ccccc2C(=O)Nc2nnn[nH]2)cc(C(C)(C)C)c1` gave a melting point of 251 to 254 °C.

`COc1ccc2c(c1OC)CCC(C#N)C2C#N` (centres undefined): the melting point fell in the range of 107 to 108 °C.

The compound `CCO/C=C/C(=O)Nc1ccc(Br)cc1C` displayed a melting point of 163 to 164 °C.

As for `CC1(C)CCCC(C)(C)N1CCOC(=O)C(Cc1ccccc1)(Cc1ccccc1)C(=O)OCCN1C(C)(C)CCCC1(C)C`, the melting point lay in the range of 77 to 78 °C.

For `O=C(CCCN1CCC(Cc2ccccc2)CC1)c1ccc2c(c1)C(=O)c1cc(C(=O)CCCN3CCC(Cc4ccccc4)CC3)ccc1-2`, the melting point is 141 to 143 °C.

`O=C(c1cc(-c2ccccc2)ccn1)N(O)Cc1ccc(F)cc1` returned a melting point of 135 to 140 °C.

Turning to `CC(=O)NCC(C)n1nnnc1S` (centres undefined), the melting point fell in the range of 176 to 178 °C.

`Cc1nscc1C(=O)NC1CC1` registered a melting point of 106 to 108 °C.

As to `NC(=O)OCCn1cc(C(N)=O)c([N+](=O)[O-])n1`, the melting point fell in the range of 191 to 194 °C.

As to `O=C(O)[C@H](Cc1ccc(OCCc2coc(-c3ccccc3)n2)cc1)NS(=O)(=O)Cc1ccccc1`, the melting point is 141 to 143 °C.

As for `CNC(=S)NS(=O)(=O)c1cc(CCNC(=O)c2cc(C(C)(C)C)ccc2OC)ccc1OCCOC`, the melting point amounted to 61 °C.

As to `O=C(O)Cc1ccc(OCCNC(=O)C2Cc3ccccc3N2S(=O)(=O)c2ccc(-c3cc(C(F)(F)F)ccc3Cl)cc2)cc1` (centres undefined), the melting point was found to be 84 °C.

In the case of `CC(=O)N(C)c1c(C(=O)C2CCCCC2)[nH]c2cc(Cl)ccc12`, the melting point lay within 162 to 163 °C.

In the case of `O=[N+]([O-])c1ccc(F)c(Br)c1`, the melting point came to 59 °C.

As for `O=[N+]([O-])c1cc(Cl)c(Oc2cc(Cl)c(Br)cc2Cl)cc1NCc1ccccc1`, the melting point stood at 157 °C.

For `CCCCCCOC(=O)CC[C@@H](NC(=O)[C@@H](NC(=O)OC(C)(C)C)C(C)C)C(N)=O`, the melting point fell in the range of 94 to 95 °C.

On to `Fc1ccc(NCc2ccc(NCc3ccccc3)nc2)nc1`, for which the melting point lay within 166 to 168 °C.

For `Cc1ccc(S(=O)(=O)OCC2CCc3ccc4[nH]c(=O)[nH]c4c3O2)cc1` (centres undefined), the melting point is 205 °C.

Regarding `CC(C)[C@H](NS(=O)(=O)c1ccc2c(Cl)cnc(Cl)c2c1)C(=O)OC(C)(C)C`, the melting point lay in the range of 127 to 129 °C.

`CCOc1ccc(-c2nc(Cn3cccc3C(C)=O)cs2)cc1OCC` showed a melting point of 123 to 124 °C.

In turn, `Cc1cc(O)c([N+](=O)[O-])cc1C(=O)c1c(Cl)cccc1Cl` gave a melting point of 170 °C.

Regarding `COc1cc2c(cc1O)c(-c1cc3cccnc3n1S(=O)(=O)c1ccc(C)cc1)cn2C`, the melting point was in the range of 211 to 214 °C.

`COC(C)=CC(=O)Nc1cccc(C(F)(F)F)c1`: the melting point was 90 °C.

`CSc1ccc(C(=O)Nc2cccnc2C(=O)Nc2ccc(Cl)cn2)c(OC2CCNCC2)c1` registered a melting point of 157 to 158 °C.

In the case of `Cc1oc(-c2ccco2)nc1CCOc1ccc(CC2SC(=O)NC2=O)cn1` (centres undefined), the melting point fell in the range of 160 to 162 °C.

`CC[C@H](C)C(OCc1ccccc1)[C@@H]1[C@H]([N+](=O)[O-])[C@H](c2ccccc2)N[C@]1(C)C(=O)NCCC(=O)O` (some centres undefined): the melting point was in the range of 104 to 105 °C.

The compound `CCCC12COC(C=O)(OC1)OC2` showed a melting point of 117 to 118 °C.

As for `CC(C)(C)OC(=O)Nc1ccc(F)cc1C(F)(F)F`, the melting point fell in the range of 61 to 62 °C.

For `Nc1nc(NCCC2=CCCCC2)nc2c1ncn2C1OC(CO)C(O)C1O` (centres undefined), the melting point is 135 to 138 °C.

`C=CCSc1cc(C(=O)O)cc(S(=O)(=O)Cl)c1Oc1ccccc1` yielded a melting point of 160 to 162 °C.

For the compound `CCOC(=O)c1cc2cc(/C=C/C(=O)c3cc(OC)c(OC)c(OC)c3)cc(C(C)CC)c2oc1=O` (centres undefined), the melting point was 138 to 139 °C.

With `COc1ccc(-c2ccc(C#N)cc2)cc1C(C)=O`, the melting point amounted to 102 °C.

Compound `O=C(Cl)Cc1ccc([N+](=O)[O-])cc1` showed a melting point of 47.5 to 49 °C.

As to `CCOC(=O)Cc1ccc(NC(=O)C(COc2ccc(Cl)cc2)NS(=O)(=O)c2ccc(Cl)cc2)cc1` (racemic), the melting point lay within 136 to 138 °C.

`c1ccc(N2CCOCC2)c(N=C2CCCCN2)c1` came in with a melting point of 89 to 90 °C.

`Cc1cccc(-n2c(-c3sc(Nc4ccccc4)nc3-c3ccccc3)nc3ccccc3c2=O)c1` had a melting point of 105 to 107 °C.

In the case of `O=C1C(=O)N2CCOc3cccc1c32`, the melting point was 188 °C.

As to `Clc1ncccc1OCC#CI`, the melting point was in the range of 164 to 165 °C.

On to `O=C(O)c1cnc(-c2ccccc2OCC2CC2)[nH]c1=O`, for which the melting point lay within 219 to 220 °C.

Compound `COc1ccc2c(c1)c(-c1cc3cc(-c4ccccc4)cnc3[nH]1)cn2C` yielded a melting point of 240 to 242 °C.

In turn, `CCOC(=O)c1c(C)nc2c(c1N)c1ccccc1n2C` displayed a melting point of 79 to 80 °C.

On to `S=C(Cc1cccnc1)N1CCC(=C2c3ccc(Cl)cc3CCc3cccnc32)CC1`, for which the melting point fell in the range of 92 to 93 °C.

On to `CONC(=O)NC1CCCc2sccc21` (centres undefined), for which the melting point amounted to 138 °C.

As for `CC(NC(=O)C(CS)C(C)c1ccc(F)c(F)c1)C(=O)O` (centres undefined), the melting point is 61 °C.

Compound `CS(=O)(=O)Nc1cccc(NC(=O)C(=O)N2CCC(Cc3ccc(F)cc3)CC2)c1` had a melting point of 102 to 106 °C.

For the compound `CC(C)[C@H](N)C(=O)NC(Cc1ccccc1)C(O)C(Cc1ccccc1)NC(=O)[C@@H](NC(=O)OCc1ccccc1)C(C)C` (some centres undefined), the melting point was 126 to 127 °C.

`COC(=O)c1ccc(NS(=O)(=O)c2ccc(F)cc2)cn1` displayed a melting point of 183 to 185 °C.

`CC(=O)OC1CC2=CC(=NO)C3C4CCCC4(C)CCC3C2(C)C(OC(C)=O)C1` (centres undefined) gave a melting point of 236 to 238 °C.

In turn, `CCC(CC)Nc1cc(C)nc(Oc2c(C)cc(C)cc2C)c1NC(=O)CCl` returned a melting point of 152 to 154 °C.

For `CCC1(CC)CC(=O)c2ccc(O)cc2O1`, the melting point fell in the range of 97 to 99 °C.

Regarding `CS(=O)(=O)c1ccc(-c2cc(C(F)(F)F)nn2-c2ccc(OC(F)(F)F)cc2)cc1F`, the melting point lay in the range of 110 to 112 °C.

For the compound `CCCNc1nc(C#N)c(C#N)nc1-c1ccc(C)cc1`, the melting point was in the range of 115 to 116 °C.

As to `CC(C)=CCn1c(=S)sc2c(=O)[nH]c(N)nc21`, the melting point was greater than 320 °C.

The compound `CCCCCCOc1ccc(-c2ccc(OCCCCCCBr)cc2)cc1` had a melting point of 103 to 105 °C.

In the case of `O=c1ccn(CCCO)c(CO)c1O`, the melting point lay within 138 to 139 °C.

`Cc1nsc(OCC(F)(F)F)c1S(N)(=O)=O` registered a melting point of 148 to 149 °C.

`Cc1coc2cc(Cl)cc(Cl)c12` showed a melting point of 45 °C.

On to `CCOC(=O)c1cn(-c2cccc(OC)c2)cn1`, for which the melting point fell in the range of 95 to 96 °C.

`Cc1ccc(C(=O)Nc2c(NC(=O)CN3CCSCC3)ccc3c2C(=O)c2ccccc2C3=O)cc1` showed a melting point of 210 to 211 °C.

In turn, `CCOC(=O)c1cn(C2CC2)c2c(Cl)c(F)c(F)c(C)c2c1=O` showed a melting point of 153 to 154 °C.

`NC(=O)c1c(NC(=O)C2CC2)sc2c1CCCC2=O` came in with a melting point of 203 to 205 °C.

In the case of `O=C(CCC1CCCC1)Nc1ccc2ncn3c(=O)c(C(=O)O)cnc3c2c1`, the melting point is 279 to 283 °C.

The compound `CN(C)CCN1CCC(Nc2nc3ccccc3n2Cc2ccc(F)cc2)CC1` displayed a melting point of 166 °C.

Compound `CCOCc1nc2c(N)nc3cc(OCc4ccccc4Cl)ccc3c2n1CC(C)(C)NS(C)(=O)=O` returned a melting point of 253 to 255 °C.

`O=C1c2ccccc2Cc2ccccc2C1Br` (centres undefined) had a melting point of 82 to 84 °C.

As for `CN(C)CCC(Cc1ccccc1C(=O)O)c1ccccc1` (centres undefined), the melting point was 152 to 154 °C.

Consider `CC(=O)N1CCC(CCCCC(=O)c2ccc(F)cc2)CC1`, for which the melting point fell in the range of 98 to 100 °C.

`CC(=CCP(=O)(O)O)C(N)C(=O)O` (centres undefined) registered a melting point of 168 °C.

With `Cc1cc2c(c(C3=NNC(=O)CC3C)c1)OCCN2` (centres undefined), the melting point lay in the range of 160 to 162 °C.

In turn, `CCOC(=O)C1=NN(c2ccc(Cl)cc2)C2(N3CCCC3)CCCC12` (centres undefined) displayed a melting point of 95 to 96 °C.

In turn, `O=c1c2c(cnn1-c1ccccc1)C(Cc1ccccc1)NCCS2` (centres undefined) showed a melting point of 174 to 175 °C.

`O=C(Nc1nccs1)c1cccc(C[C@@H]2COc3ccc(OCc4nc5cc(F)ccc5s4)cc3[C@@H]2O)c1` (relative stereo) returned a melting point of 120 °C.

The compound `CCS(=O)(=O)CCNC(=O)C1=C(C(=O)Nc2ccc(Cl)cc2F)CCCC1` had a melting point of 150 to 151 °C.

In turn, `Cc1nc(N2CCN(Cc3ccccc3)CC2)ncc1C(N)=O` returned a melting point of 195 to 196 °C.

As for `CC(=O)NCC1CC1c1c(C#N)ccc2nn(C)cc12` (centres undefined), the melting point is 189 to 192 °C.

Take `O=c1c2cccc3c2n(c(=O)n1CC(O)CO)-c1cc(C(F)(F)F)ccc1S3` (centres undefined): the melting point is 159 to 162 °C.

`COc1cc(CCNC(C)=O)c(C(=O)Cc2cc(OC)c(OC)cc2[N+](=O)[O-])cc1OC` registered a melting point of 142 to 144 °C.

Turning to `COc1c(Nc2ncc(Cl)c(Nc3ccccc3S(=O)(=O)N3CCCC3)n2)ccc2c1CCCC(NCCO)C2` (centres undefined), the melting point fell in the range of 79 to 82 °C.

In the case of `COc1cc(Nc2c(C#N)cnc3cc(C#CCCN(C)C)c(OC)cc23)c(Cl)cc1Cl`, the melting point is 177 to 179 °C.

In the case of `CCCCc1nc2ncccc2n1Cc1ccc(-c2ccccc2C(=O)O)cc1`, the melting point is 170 °C.

`O=C1COc2cc(C(=O)N3CCOCC3)ccc2N1` registered a melting point of 186 to 188 °C.

With `O=C(O)c1ccccc1-c1nnc(-c2ccccc2)o1`, the melting point was 173 to 175 °C.

`CCOC(=O)c1c(C)nc(N2CCN(C)CC2)c2nnn(CC)c12` registered a melting point of 63 to 65 °C.

For `COC(=O)NC(C)(C)c1ccc(CS(=O)(=O)c2ccc(C)c(C)c2)cc1`, the melting point was 146 to 149 °C.

In turn, `O=c1[nH]c2ccccc2n1CCCN1CCC(c2noc3cccc(F)c23)CC1` yielded a melting point of 174 to 175 °C.

The melting point is the temperature of the solid-liquid transition.
